The target in assay [1] is T1, human organic anion transporter 4 (hOAT4) (Homo sapiens, UniProt Q9NSA0).
T1 construct: gene SLC22A11
T1 sequence (Q9NSA0 1-550): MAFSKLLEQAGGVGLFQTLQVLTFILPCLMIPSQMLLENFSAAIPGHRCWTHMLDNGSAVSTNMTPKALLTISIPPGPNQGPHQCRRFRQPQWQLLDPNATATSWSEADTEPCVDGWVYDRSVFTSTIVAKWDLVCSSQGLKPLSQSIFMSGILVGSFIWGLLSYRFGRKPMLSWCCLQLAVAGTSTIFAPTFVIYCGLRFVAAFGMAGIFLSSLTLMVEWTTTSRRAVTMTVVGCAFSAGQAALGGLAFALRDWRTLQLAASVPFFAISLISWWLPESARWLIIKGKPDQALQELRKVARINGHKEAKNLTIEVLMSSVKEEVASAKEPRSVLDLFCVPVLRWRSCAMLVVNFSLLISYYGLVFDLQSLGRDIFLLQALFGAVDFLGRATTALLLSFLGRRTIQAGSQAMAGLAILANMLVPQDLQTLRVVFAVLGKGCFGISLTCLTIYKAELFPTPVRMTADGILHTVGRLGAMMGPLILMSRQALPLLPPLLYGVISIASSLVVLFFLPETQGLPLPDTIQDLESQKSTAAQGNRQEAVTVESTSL
Description: inhibition of [3H]-estrone sulfate uptake in stable hOAT4-expressing COS-7 cells, Dixon plot (IC50 […]). It is filed as cell-based.

The target in assay [2] is T1, human organic anion transporter 4 (hOAT4). Description: inhibition of [3H]-estrone sulfate uptake in stable hOAT4-expressing COS-7 cells, Dixon plot (IC50 […]); trans-inhibition. It is filed as cell-based.

Counter-ions that a name gives are not always drawn.

Data on 2 compounds can be found in PMC6421026, “Interaction of Anticancer Drugs with Human Organic Anion Transporter hOAT4” (Journal of Oncology, 2019).

Usually Ki stands for the equilibrium dissociation constant of an inhibitor or competing ligand from its target. `COc1cccc2c1C(=O)c1c(O)c3c(c(O)c1C2=O)C[C@@](O)(C(=O)CO)C[C@@H]3O[C@H]1C[C@H](N)[C@@H](O)[C@H](C)O1` [epirubicin hydrochloride] yielded a Ki in assay [1] of 3 µM. Compound `CC(C)(C)c1nc(-c2cccc(NS(=O)(=O)c3c(F)cccc3F)c2F)c(-c2ccnc(N)n2)s1` [Dab, dabrafenib mesylate] showed an inhibitory constant (Ki) in assay [2] of 4.26 µM.
